Drawing on patent publication US20260035403A1, “NUCLEOSIDE LINE-1 INHIBITORS” (TRANSPOSON THERAPEUTICS, INC., priority 2022, published 2026), this text covers IC50 for 30 compounds.

Where only a bound is given, the exact number is not on record here.

The experiment deals with human LINE-1. The experiment in a line: Human LINE-1 retrotransposition assay (HeLa cell-based dual-luciferase reporter). Particulars: Homo sapiens, HeLa, 72 h, Human LINE-1 activity inhibition; HeLa cells, reporter plasmid pYX017, Firefly/Renilla, 72 h incubation. The procedure:
Representative Compounds of the Disclosure were tested for inhibition of retrotransposition activity of human LINE-1 in HeLa cells according to the following procedure.
HeLa cervical cancer cells were cultivated at 37° C. in a humidified 5% CO2 incubator in Dulbecco's Modified Eagle's Medium (DMEM)—high glucose, with 4500 mg/L glucose, L-glutamine, sodium pyruvate and sodium bicarbonate (Sigma), supplemented with 10% of heat inactivated fetal bovine serum (Thermo Fisher).
Assays were performed using reporter plasmid pYX017 as described (Xie, et al., 2011) with several modifications. The reporter assay was performed in 96-well white optical bottom plates. HeLa cells were seeded in wells 24 h prior to transfection and compound treatment so that cells were approximately 30% confluent on the day of transfection. Different cell plating densities were tested and a density of 2×10^3 cells was determined to be optimal.
Compounds were resuspended in DMSO. Serial dilutions (1:3) were prepared in DMSO. Medium containing different concentrations of the compounds were prepared by adding 2 μl of the compound dilution to 1 ml of the culture medium. The final concentration of DMSO in the medium was 0.2%.
FuGENE® HD transfection reagent (Promega, E2311, Lot 382574 and Lot 397842) was used to transfect the plasmids into the cells. The transfection reagent: DNA mixture was prepared in OpiMEM (Thermo Fisher) according to manufacturer's instructions. Different ratios of transfection reagent to DNA were tested and a ratio of 3:1 was determined to be optimal. Culture medium was removed from the cells and discarded. The transfection reagent: DNA mixture (5 μl) was mixed with the compound containing medium (100 μl/well) and this was added onto the cells of each well. Cells were incubated at 37° C./5% CO2 for different incubation time. A 72 h incubation time was determined to be optimal.
Luciferase reporter activity was quantified with the Dual-Luciferase® Reporter Assay System (Promega) according to manufacturer's instructions for multiwell plates except that cells were lysed directly on the multiwell plate with 30 μl of the passive lysis buffer (PLB) for 20 min at room temperature, with gentle shaking to ensure complete cell lysis.
Firefly and Renilla luciferase signals were measured using a SpectraMax i3× Multi-Mode Microplate Reader. Integration times of 100 ms and 10 ms were used to measure the Firefly and Renilla signals respectively. Relative L1 activity is calculated as Firefly/Renilla*1000 or Firefly/Renilla*10,000. Dose response inhibition data were fit to a four parameter logistic equation using non-linear regression (using Graphpad Prism 8), to determine IC50 values for each inhibitor.
For orientation: Reporter assays use an easily measured gene product as a stand-in for the process of interest.
On to `C#C[C@@]1(CO)C=C[C@H](n2cc(C(F)(F)F)c(=O)[nH]c2=O)O1` [compound 28, 1-((2R,5R)-5-ethynyl-5-(hydroxymethyl)-2,5-dihydrofuran-2-yl)-5-(trifluoromethyl)pyrimidine-2,4(1H,3H)-dione], for which the half-maximal inhibitory concentration (IC50) (commonly the concentration at which inhibition is half-maximal) is over 12.5 µM.
Compound `C#C[C@]1(CO)O[C@@H](n2cc(C)c(=O)[nH]c2=O)C[C@H]1O` [compound 29, 1-((2R,4R,5R)-5-ethynyl-4-hydroxy-5-(hydroxymethyl)tetrahydrofuran-2-yl)-5-methylpyrimidine-2,4(1H,3H)-dione] returned a concentration for half-maximal inhibition (IC50) of over 50 µM.
Turning to `C#C[C@@]1(CO)C=C[C@H](n2ccc(=O)[nH]c2=O)O1` [compound 30, 1-((2R,5R)-5-ethynyl-5-(hydroxymethyl)-2,5-dihydrofuran-2-yl)pyrimidine-2,4(1H,3H)-dione], the 50% inhibitory concentration (IC50) was determined as 16 µM.
In the case of `C#C[C@@]1(CO)C[C@@H](Sc2ccc(C)cc2)[C@H](n2ccc(=O)[nH]c2=O)O1` [compound 31, 1-((2R,3R,5R)-5-ethynyl-5-(hydroxymethyl)-3-(p-tolylthio)tetrahydrofuran-2-yl)pyrimidine-2,4(1H,3H)-dione] it was over 50 µM; in that of `C#C[C@]1(CO)O[C@H](n2ccc(N)nc2=O)C[C@@H]1O` [compound 32, 4-amino-1-((2S,4S,5R)-5-ethynyl-4-hydroxy-5-(hydroxymethyl)tetrahydrofuran-2-yl)pyrimidin-2(1H)-one], 0.84 µM.
In the case of `C#C[C@@]1(CO)C=C[C@H](n2cc(C#N)c(=O)[nH]c2=O)O1` [compound 33, 1-((2R,5R)-5-ethynyl-5-(hydroxymethyl)-2,5-dihydrofuran-2-yl)-2,4-dioxo-1,2,3,4-tetrahydropyrimidine-5-carbonitrile] it was over 12.5 µM; in that of `C#C[C@@]1(CO)C=C[C@H](n2ccc3c(=O)[nH]cnc32)O1` [compound 34, 7-((2R,5R)-5-ethynyl-5-(hydroxymethyl)-2,5-dihydrofuran-2-yl)-3,7-dihydro-4H-pyrrolo[2,3-d]pyrimidin-4-one], over 50 µM.
In the case of `C#C[C@@]1(CO)C=C[C@H](n2cc(CC)c(=O)[nH]c2=O)O1` [compound 35, 5-ethyl-1-((2R,5R)-5-ethynyl-5-(hydroxymethyl)-2,5-dihydrofuran-2-yl)pyrimidine-2,4(1H,3H)-dione] it was over 50 µM.
In the case of `C#C[C@@]1(CO)C=C[C@H](n2cc(OC)c(=O)[nH]c2=O)O1` [compound 36, 1-((2R,5R)-5-ethynyl-5-(hydroxymethyl)-2,5-dihydrofuran-2-yl)-5-methoxypyrimidine-2,4(1H,3H)-dione], the half-inhibitory concentration (IC50) is over 12.5 µM.
As for `[2H]C([2H])([2H])c1cn([C@H]2C=C[C@@](C#C)(CO)O2)c(=O)[nH]c1=O` [compound 37, 1-((2R,5R)-5-ethynyl-5-(hydroxymethyl)-2,5-dihydrofuran-2-yl)-5-(methyl-d3)pyrimidine-2,4(1H,3H)-dione], the figure is 0.067 µM.
In the case of `C#C[C@@]1(CO)C=C[C@H](n2cnc3cncnc32)O1` [compound 38, ((2R,5R)-2-ethynyl-5-(9H-purin-9-yl)-2,5-dihydrofuran-2-yl)methanol] it was over 50 µM; in that of `C#C[C@@]1(CO)C=C[C@H](n2cnc3c(Cl)ncnc32)O1` [compound 39, ((2R,5R)-5-(6-chloro-9H-purin-9-yl)-2-ethynyl-2,5-dihydrofuran-2-yl)methanol], over 50 µM; in that of `C#C[C@@]1(CO)C=C[C@H](n2cc(F)c(N)nc2=O)O1` [compound 40, 4-amino-1-((2R,5R)-5-ethynyl-5-(hydroxymethyl)-2,5-dihydrofuran-2-yl)-5-fluoropyrimidin-2(1H)-one], over 50 µM.
In the case of `C#C[C@@]1(CO)C=C[C@H](n2cnc3c(OC)nc(Cl)nc32)O1` [compound 41, ((2R,5R)-5-(2-chloro-6-methoxy-9H-purin-9-yl)-2-ethynyl-2,5-dihydrofuran-2-yl)methanol] it was over 50 µM.
Regarding `C#C[C@@]1(CO)C=C[C@H](n2cc(C)c(N)nc2=O)O1` [compound 42, 4-amino-1-((2R,5R)-5-ethynyl-5-(hydroxymethyl)-2,5-dihydrofuran-2-yl)-5-methylpyrimidin-2(1H)-one], the half-inhibitory concentration (IC50) was over 50 µM.
In the case of `C#C[C@]1(CO)OC(n2cc(C)c(=O)[nH]c2=O)C[C@@H]1O` (stereo partly drawn) [compound 43, 1-((4S,5R)-5-ethynyl-4-hydroxy-5-(hydroxymethyl)tetrahydrofuran-2-yl)-5-methylpyrimidine-2,4(1H,3H)-dione], the half-inhibitory concentration (IC50) is 0.876 µM.
In the case of `C#C[C@]1(CO)OC(n2cc(Br)c(=O)[nH]c2=O)C[C@@H]1O` (stereo partly drawn) [compound 44, 5-bromo-1-((4S,5R)-5-ethynyl-4-hydroxy-5-(hydroxymethyl)tetrahydrofuran-2-yl)pyrimidine-2,4(1H,3H)-dione] it was 2.2 µM; in that of `C#C[C@]1(CO)OC(n2cc(F)c(=O)[nH]c2=O)C[C@@H]1O` (stereo partly drawn) [compound 45, 1-((4S,5R)-5-ethynyl-4-hydroxy-5-(hydroxymethyl)tetrahydrofuran-2-yl)-5-fluoropyrimidine-2,4(1H,3H)-dione], 3.81 µM; in that of `C#C[C@]1(CO)OC(n2cc(C)c(N)nc2=O)C[C@@H]1O` (stereo partly drawn) [compound 46, 4-amino-1-((4S,5R)-5-ethynyl-4-hydroxy-5-(hydroxymethyl)tetrahydrofuran-2-yl)-5-methylpyrimidin-2(1H)-one], over 50 µM.
As for `Cc1cn([C@H]2C=C[C@](CO)(C3CC3)O2)c(=O)[nH]c1=O` [compound 47, 1-((2R,5S)-5-cyclopropyl-5-(hydroxymethyl)-2,5-dihydrofuran-2-yl)-5-methylpyrimidine-2,4(1H,3H)-dione], the figure is over 25 µM; as for `COC[C@@]1(CO)C=C[C@H](n2cc(C)c(=O)[nH]c2=O)O1` [compound 48, 1-((2R,5S)-5-(hydroxymethyl)-5-(methoxymethyl)-2,5-dihydrofuran-2-yl)-5-methylpyrimidine-2,4(1H,3H)-dione], over 50 µM.
In turn, `C#C[C@]1(CO)O[C@H](n2cnc3c(=O)[nH]c(N)nc32)C[C@@H]1O` [compound 49, 2-amino-9-((2S,48,5R)-5-ethynyl-4-hydroxy-5-(hydroxymethyl)tetrahydrofuran-2-yl)-1,9-dihydro-6H-purin-6-one] registered a half-maximal inhibitory concentration (IC50) of 0.052 µM.
`C#C[C@]1(CO)O[C@H](n2cc(C)c(=O)[nH]c2=O)C[C@@H]1O` [compound 50, 1-((2S,4S,5R)-5-ethynyl-4-hydroxy-5-(hydroxymethyl)tetrahydrofuran-2-yl)-5-methylpyrimidine-2,4(1H,3H)-dione] yielded a 50% inhibitory concentration (IC50) of 25.5 µM.
`C#C[C@]1(CO)OC(n2ccc(=O)[nH]c2=O)C[C@@H]1O` (stereo partly drawn) [compound 51, 1-((4S,5R)-5-ethynyl-4-hydroxy-5-(hydroxymethyl)tetrahydrofuran-2-yl)pyrimidine-2,4(1H,3H)-dione] had a 50% inhibitory concentration (IC50) of 5.08 µM.
In the case of `C#C[C@]1(CO)OC(n2cc(C3CC3)c(=O)[nH]c2=O)C[C@@H]1O` (stereo partly drawn) [compound 52, 5-cyclopropyl-1-((4S,5R)-5-ethynyl-4-hydroxy-5-(hydroxymethyl)tetrahydrofuran-2-yl)pyrimidine-2,4(1H,3H)-dione] it was over 50 µM; in that of `C#C[C@]1(CO)O[C@H](n2cc(Br)c(=O)[nH]c2=O)C[C@@H]1O` [compound 53, 5-bromo-1-((2S,4S,SR)-5-ethynyl-4-hydroxy-5-(hydroxymethyl)tetrahydrofuran-2-yl)pyrimidine-2,4(1H,3H)-dione], over 50 µM; in that of `C#C[C@]1(CO)O[C@H](n2cc(C)c(N)nc2=O)C[C@@H]1O` [compound 56, 4-amino-1-((2S,4S,5R)-5-ethynyl-4-hydroxy-5-(hydroxymethyl)tetrahydrofuran-2-yl)-5-methylpyrimidin-2(1H)-one], over 50 µM.
As for `C#C[C@@]1(CO)C=C[C@H](n2cc(OC(F)F)c(=O)[nH]c2=O)O1` [compound 57, 5-(difluoromethoxy)-1-((2R,5R)-5-ethynyl-5-(hydroxymethyl)-2,5-dihydrofuran-2-yl)pyrimidine-2,4(1H,3H)-dione], the figure is over 50 µM; as for `C#C[C@]1(CO)OC(n2cc(C#N)c(=O)[nH]c2=O)C[C@@H]1O` (stereo partly drawn) [compound 58, 1-((4S,5R)-5-ethynyl-4-hydroxy-5-(hydroxymethyl)tetrahydrofuran-2-yl)-2,4-dioxo-1,2,3,4-tetrahydropyrimidine-5-carbonitrile], over 50 µM.
Compound `C#C[C@]1(CO)OC(n2cc(OC)c(=O)[nH]c2=O)C[C@@H]1O` (stereo partly drawn) [compound 59, 1-((4S,5R)-5-ethynyl-4-hydroxy-5-(hydroxymethyl)tetrahydrofuran-2-yl)-5-methoxypyrimidine-2,4(1H,3H)-dione] returned an IC50 of 20.9 µM.
